Measured values as given in ChEMBL document CHEMBL1201862, “PubChem BioAssay data set” (2004).
Calls of active or inactive are those of the source.

What was measured:
[1] = target: T1, RNA-binding protein pos-1 (Caenorhabditis elegans, UniProt G5EF15); assay: inhibitors of POS-1/mex-3 RNA binding, dose response, biochemical, fluorescence polarization (AID 1964);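 further: purified POS-1 fused to maltose binding protein made in E. coli; potency of compounds blocking POS-1 binding to fluorescent RNA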
T1 sequence (G5EF15 whole entry): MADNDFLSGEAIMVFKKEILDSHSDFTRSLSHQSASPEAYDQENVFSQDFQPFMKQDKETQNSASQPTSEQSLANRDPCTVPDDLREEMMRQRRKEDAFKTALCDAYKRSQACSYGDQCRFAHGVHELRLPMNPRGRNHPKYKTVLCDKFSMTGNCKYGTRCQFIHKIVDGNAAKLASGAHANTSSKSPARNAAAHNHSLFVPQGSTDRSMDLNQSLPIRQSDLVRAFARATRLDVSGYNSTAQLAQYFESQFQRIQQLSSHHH

[2] = target: T2, Zinc finger protein mex-5 (Caenorhabditis elegans, UniProt Q9XUB2); assay: MEX-5/TCR-2 RNA interaction inhibitors, dose response, biochemical, C. elegans, fluorescence polarization (AID 1960)
T2 sequence (Q9XUB2 whole entry): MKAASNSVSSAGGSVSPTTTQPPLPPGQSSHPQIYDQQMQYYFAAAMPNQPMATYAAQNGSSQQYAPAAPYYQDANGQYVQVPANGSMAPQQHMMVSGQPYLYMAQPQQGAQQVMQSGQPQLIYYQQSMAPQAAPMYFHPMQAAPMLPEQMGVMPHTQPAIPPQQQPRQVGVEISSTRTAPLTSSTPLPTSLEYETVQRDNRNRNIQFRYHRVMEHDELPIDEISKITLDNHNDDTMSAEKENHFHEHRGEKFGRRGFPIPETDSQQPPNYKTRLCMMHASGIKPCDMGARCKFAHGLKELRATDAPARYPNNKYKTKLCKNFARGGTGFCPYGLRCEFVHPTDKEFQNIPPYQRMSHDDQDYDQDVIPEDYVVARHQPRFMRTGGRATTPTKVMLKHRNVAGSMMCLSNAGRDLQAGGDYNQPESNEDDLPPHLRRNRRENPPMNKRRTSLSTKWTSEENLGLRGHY

[3] = target: Glucose-6-phosphate 1-dehydrogenase (Homo sapiens, UniProt P11413); assay: human G6PD enzyme inhibitors, dose response, selectivity assay for P. falciparum G6PD inhibitor project, biochemical, fluorescence (AID 504792); assay type: functional
[4] = target: T3, Heat shock factor protein 1 (Mus musculus, UniProt P38532); assay: HSF1 potentiators in luciferase reporter cells, confirmation, cell-based, NIH3T3, luminescence, dose retest (AID 435004); assay type: functional;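 further: stress induced by proteasome inhibitor MG132 added 30 min after compound; luciferase reporter driven by HSF1 response element in NIH3T3 cells; actives raise luminescence as potentiators of the MG132 stress response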
T3 sequence (P38532 whole entry): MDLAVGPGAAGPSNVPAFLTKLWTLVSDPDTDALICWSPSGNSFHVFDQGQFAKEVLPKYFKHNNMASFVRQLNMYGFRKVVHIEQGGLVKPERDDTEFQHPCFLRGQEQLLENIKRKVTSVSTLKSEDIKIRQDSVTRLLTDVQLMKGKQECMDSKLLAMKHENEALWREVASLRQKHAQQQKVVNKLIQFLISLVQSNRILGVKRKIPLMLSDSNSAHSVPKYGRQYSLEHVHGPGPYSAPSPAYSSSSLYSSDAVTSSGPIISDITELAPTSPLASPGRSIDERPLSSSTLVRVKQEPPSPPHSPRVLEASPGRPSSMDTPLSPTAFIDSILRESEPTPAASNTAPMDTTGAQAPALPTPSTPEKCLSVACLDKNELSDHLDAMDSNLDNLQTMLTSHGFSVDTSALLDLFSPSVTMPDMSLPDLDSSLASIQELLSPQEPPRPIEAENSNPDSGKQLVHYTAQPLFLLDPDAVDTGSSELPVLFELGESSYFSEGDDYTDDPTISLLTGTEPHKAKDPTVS

[5] = target: T4, Cysteine protease ATG4B (Homo sapiens, UniProt Q9Y4P1); assay type: functional;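 further: Fluorescence-based dose-response confirmation assay measuring inhibition of ATG4B activity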
T4 sequence (Q9Y4P1 whole entry): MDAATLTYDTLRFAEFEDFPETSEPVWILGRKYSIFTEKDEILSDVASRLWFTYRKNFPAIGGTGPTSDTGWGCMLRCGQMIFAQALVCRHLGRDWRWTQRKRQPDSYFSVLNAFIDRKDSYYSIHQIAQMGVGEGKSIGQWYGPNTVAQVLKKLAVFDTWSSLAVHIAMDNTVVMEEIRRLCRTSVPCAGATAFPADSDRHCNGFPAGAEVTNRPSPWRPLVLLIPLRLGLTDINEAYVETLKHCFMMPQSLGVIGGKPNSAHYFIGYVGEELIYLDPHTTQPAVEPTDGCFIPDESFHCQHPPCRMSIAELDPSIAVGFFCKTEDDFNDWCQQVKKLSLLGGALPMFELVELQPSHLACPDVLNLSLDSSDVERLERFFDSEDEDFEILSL

[6] = target: Phospholipase A2 (Homo sapiens, UniProt P04054); assay type: functional;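 further: confirmatory dose-response counterscreen on phospholipase A2, testing hits that came from an ultra-high-throughput screen for ATG4B inhibitors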
[7] = insulin promoter down-regulators in MIN6 cells, imaging, high-content screening, mouse beta cells (AID 1628); assay type: functional
[8] = cytotoxicity in MIN6 insulinoma cells, dose response, cytotoxicity control, cell-based, mouse insulinoma (AID 2122); assay type: functional;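 further: confirmatory high-throughput counterscreen run to flag cytotoxic compounds; mouse MIN-6 beta cells carrying an insulin promoter eGFP reporter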
[9] = Shn3 3'UTR reporter inhibitors, dose response, cell-based, Clone20 osteoblasts, firefly luciferase, cherry-picked (AID 624132); assay type: functional;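 further: firefly luciferase luminescence from reporter carrying the Shn3 3'UTR in osteoblasts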
[10] = HepG2 cell cytotoxicity, dose response, cytotoxicity control for Shn3 inhibitor project, CellTiter-Glo, cherry-picked (AID 624134); assay type: functional, cell-based
[11] = control 3'UTR Renilla luciferase suppression, dose response, counter-screen for Shn3 inhibitor project, cell-based, Clone20-Shn3RL, cherry-picked (AID 624133); assay type: functional
[12] = test system: HEK293; assay: inhibitors of LMP1-driven NF-kB reporter, dose response, cell-based, HEK293, luciferase, cherry-pick (AID 588343); assay type: functional; conditions: Homo sapiens
[13] = test system: HEK293; assay: NOD1 signaling inhibitors, primary screen, cell-based, luminescence, uHTS (AID 1578); assay type: functional; conditions: Homo sapiens
[14] = test system: BJ; assay: cytotoxicity toward BJ-TERT fibroblasts, dose response, cell-based, RAS-independent, luminescence (AID 1933); assay type: functional; conditions: Homo sapiens
[15] = test system: HEK293; assay: cells; assay type: functional, cell-based; conditions: Homo sapiens
[16] = test system: BJ; assay: cells; assay type: functional, cell-based; conditions: Homo sapiens
[17] = test system: HEK293; assay: cells; assay type: functional, cell-based; conditions: Homo sapiens; remark: listed apart in the source
[18] = test system: HEK293; assay: NOD2 signaling inhibitors in MDP-stimulated cells, cell-based, uHTS, luminescence (AID 2001); assay type: functional; conditions: Homo sapiens
[19] = target: Prothrombin (Homo sapiens, UniProt P00734); assay: Thrombin 1536 HTS Dose Response Confirmation. [Related pubchem assays: 1046 (Thrombin 1536 HTS; hits were confirmed in this assay)]; assay type: functional
[20] = test system: BJ; assay: cytotoxicity toward BJ-TERT-LT-ST fibroblasts, dose response, cell-based, RAS-independent, luminescence (AID 1935); assay type: functional; conditions: Homo sapiens;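 further: BJ fibroblasts immortalized with TERT plus LT and ST oncogenes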
[21] = cytotoxicity toward DRD oncogenic fibroblasts, dose response, cell-based, non-viral oncogenic, luminescence (AID 1934); assay type: functional; conditions: Homo sapiens
[22] = target: Tumor necrosis factor (Homo sapiens, UniProt P01375); assay: TNFa-triggered NF-kB activation inhibitors, SAR follow-up, cell-based, revised (AID 2337); assay type: functional
[23] = target: T5, Nucleotide-binding oligomerization domain-containing protein 1 (Homo sapiens, UniProt Q9Y239); assay: NOD1 signaling inhibitors, SAR follow-up, revised (AID 2333); assay type: functional
T5 sequence (Q9Y239 whole entry): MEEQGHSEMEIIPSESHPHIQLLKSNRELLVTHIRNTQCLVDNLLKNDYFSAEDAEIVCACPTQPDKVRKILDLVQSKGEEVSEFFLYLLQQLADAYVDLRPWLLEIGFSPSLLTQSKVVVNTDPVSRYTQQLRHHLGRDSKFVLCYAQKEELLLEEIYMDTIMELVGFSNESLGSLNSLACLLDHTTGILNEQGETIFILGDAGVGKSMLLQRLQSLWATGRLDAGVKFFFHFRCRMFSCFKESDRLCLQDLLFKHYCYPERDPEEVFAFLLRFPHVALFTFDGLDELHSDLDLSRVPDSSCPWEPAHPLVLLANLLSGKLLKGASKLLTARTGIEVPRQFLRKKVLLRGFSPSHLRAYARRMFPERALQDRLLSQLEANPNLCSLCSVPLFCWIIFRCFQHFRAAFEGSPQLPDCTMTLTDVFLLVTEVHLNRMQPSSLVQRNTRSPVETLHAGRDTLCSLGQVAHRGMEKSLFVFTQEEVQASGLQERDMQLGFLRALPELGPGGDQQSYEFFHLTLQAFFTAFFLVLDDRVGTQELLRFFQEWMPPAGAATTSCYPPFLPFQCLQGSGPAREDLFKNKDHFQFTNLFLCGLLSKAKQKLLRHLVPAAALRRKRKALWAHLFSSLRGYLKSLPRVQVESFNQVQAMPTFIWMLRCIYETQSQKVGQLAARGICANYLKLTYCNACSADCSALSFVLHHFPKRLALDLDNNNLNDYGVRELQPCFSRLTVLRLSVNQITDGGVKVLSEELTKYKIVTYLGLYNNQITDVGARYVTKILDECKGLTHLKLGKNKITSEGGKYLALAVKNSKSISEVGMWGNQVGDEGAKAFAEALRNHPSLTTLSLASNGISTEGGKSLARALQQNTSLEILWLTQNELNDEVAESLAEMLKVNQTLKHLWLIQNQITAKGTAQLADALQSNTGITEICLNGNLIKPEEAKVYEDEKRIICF

[24] = test system: BJ; assay: cytotoxicity toward Ras-transformed BJeLR fibroblasts, dose response, cell-based, alamar blue fluorescence, cherrypicked samples (AID 2631); assay type: functional; conditions: Homo sapiens;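 further: confirmatory dose-response assay in RAS-dependent BJ fibroblasts engineered with TERT, LT and ST, with cytotoxicity read by fluorescence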
[25] = test system: HEK293; assay: cells; conditions: Homo sapiens
[26] = target: Nucleotide-binding oligomerization domain-containing protein 2 (Homo sapiens, UniProt Q9HC29); assay: NOD2 signaling inhibitors, cell-based, luminescence, uHTS, HEK293 (AID 1566); assay type: functional
[27] = test system: HEK293; assay: cells; assay type: functional, cell-based; conditions: Homo sapiens; remark: listed apart in the source

Phospholipase A2, sequence (P04054 whole entry): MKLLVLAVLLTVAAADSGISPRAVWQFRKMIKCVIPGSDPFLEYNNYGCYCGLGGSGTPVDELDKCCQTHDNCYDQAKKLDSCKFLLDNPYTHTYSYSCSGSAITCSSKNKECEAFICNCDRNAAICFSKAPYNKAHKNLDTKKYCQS
Tumor necrosis factor, sequence (P01375 whole entry, the tested form may be a part): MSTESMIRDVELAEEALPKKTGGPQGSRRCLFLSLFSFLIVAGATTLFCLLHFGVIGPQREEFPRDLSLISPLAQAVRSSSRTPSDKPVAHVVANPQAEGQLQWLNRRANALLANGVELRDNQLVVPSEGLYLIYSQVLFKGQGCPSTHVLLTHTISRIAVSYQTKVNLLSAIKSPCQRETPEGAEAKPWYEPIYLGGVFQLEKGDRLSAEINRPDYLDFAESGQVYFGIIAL
Glucose-6-phosphate 1-dehydrogenase, sequence (P11413 whole entry): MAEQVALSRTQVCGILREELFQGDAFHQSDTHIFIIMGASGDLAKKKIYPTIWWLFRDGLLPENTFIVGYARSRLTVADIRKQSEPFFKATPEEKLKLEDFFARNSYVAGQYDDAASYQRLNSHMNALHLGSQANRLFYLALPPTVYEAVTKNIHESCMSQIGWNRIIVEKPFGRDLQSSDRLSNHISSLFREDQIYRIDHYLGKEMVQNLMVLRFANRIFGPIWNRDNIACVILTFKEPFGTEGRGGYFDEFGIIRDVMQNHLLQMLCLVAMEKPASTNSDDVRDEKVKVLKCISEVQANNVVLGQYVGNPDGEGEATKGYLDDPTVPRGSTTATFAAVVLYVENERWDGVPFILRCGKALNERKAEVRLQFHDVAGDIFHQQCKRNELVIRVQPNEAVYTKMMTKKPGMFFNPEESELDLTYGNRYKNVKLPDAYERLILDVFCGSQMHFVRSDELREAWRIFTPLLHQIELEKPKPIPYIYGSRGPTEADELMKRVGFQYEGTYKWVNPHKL
Nucleotide-binding oligomerization domain-containing protein 2, sequence (Q9HC29 whole entry, the tested form may be a part): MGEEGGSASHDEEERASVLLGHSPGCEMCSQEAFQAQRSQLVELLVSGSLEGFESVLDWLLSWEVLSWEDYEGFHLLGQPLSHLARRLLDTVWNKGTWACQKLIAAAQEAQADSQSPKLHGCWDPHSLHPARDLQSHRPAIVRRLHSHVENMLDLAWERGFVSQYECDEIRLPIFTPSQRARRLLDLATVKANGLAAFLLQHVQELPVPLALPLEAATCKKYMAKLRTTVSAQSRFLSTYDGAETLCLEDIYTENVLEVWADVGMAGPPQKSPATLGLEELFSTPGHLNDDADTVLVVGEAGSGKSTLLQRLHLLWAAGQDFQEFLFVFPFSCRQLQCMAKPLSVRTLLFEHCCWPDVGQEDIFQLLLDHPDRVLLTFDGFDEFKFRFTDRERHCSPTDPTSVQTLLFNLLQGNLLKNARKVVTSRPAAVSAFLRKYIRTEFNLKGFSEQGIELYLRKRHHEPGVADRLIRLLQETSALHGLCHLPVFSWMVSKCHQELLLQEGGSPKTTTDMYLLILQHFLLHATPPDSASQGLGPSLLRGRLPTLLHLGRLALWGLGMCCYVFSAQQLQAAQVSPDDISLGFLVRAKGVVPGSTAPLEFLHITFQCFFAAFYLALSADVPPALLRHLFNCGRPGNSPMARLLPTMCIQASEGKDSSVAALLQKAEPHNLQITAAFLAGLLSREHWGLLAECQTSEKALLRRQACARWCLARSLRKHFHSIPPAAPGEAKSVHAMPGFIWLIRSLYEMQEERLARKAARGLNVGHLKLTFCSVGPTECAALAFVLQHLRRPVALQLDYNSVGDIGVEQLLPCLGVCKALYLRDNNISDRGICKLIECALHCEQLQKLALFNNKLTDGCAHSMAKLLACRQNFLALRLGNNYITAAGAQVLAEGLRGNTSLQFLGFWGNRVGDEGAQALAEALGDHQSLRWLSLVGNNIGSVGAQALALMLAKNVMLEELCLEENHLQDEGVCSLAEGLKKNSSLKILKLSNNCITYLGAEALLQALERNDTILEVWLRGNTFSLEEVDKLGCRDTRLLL

For Oc1ccc(C2C[C@H]3CC[C@@H]2C3)cc1O (stereo not given in full), the EC50 [1] was > 300 µM (not active), the EC50 [2] was 20.6 µM (inconclusive) and the IC50 [3] was > 80 µM (inactive). The EC50 [4] was 20 µM (active).

With COC(=O)CSc1nc2cc(Cl)ccc2c(=O)n1C1CCCC1 the IC50 [5] was 5.43 µM (active) and the IC50 [6] was 11.4 µM (active).

In the case of O=C(CN(C(=O)c1ccc(Cl)cc1)C1CCCCC1)Nc1ccc(Cl)c([N+](=O)[O-])c1, the IC50 [7] is reported as 3.45 µM (active), the IC50 [8] is reported as 1.85 µM (active) and the AC50 [9] is reported as 8.11 µM (active). The AC50 [10] was 52.6 µM (active) and the AC50 [11] was 20.6 µM (active).

For Cc1cccc(NC(=S)N=Nc2c(O)n(C)c3ccc(S(=O)(=O)N4CCOCC4)cc23)c1, the IC50 [7] was 6.3 µM (active), the IC50 [8] was 5.04 µM (active) and the AC50 [12] was 0.985 µM (active).

For Cc1cccc(Nc2nc(N)nc(CCl)n2)c1, the EC50 [13] was 8.71 µM (active), the EC50 [14] was 6.83 µM (inconclusive) and the IC50 [15] was 9.2 µM (active). The EC50 [16] was 7.74 µM (active), the IC50 [17] was > 20 µM (inactive) and the IC50 [18] was 10.2 µM (inactive). For the same molecule, the IC50 [19] was > 50 µM (not active), the EC50 [20] was > 75 µM (inconclusive) and the EC50 [21] was 3.92 µM (active). The IC50 [22] was > 20 µM (inactive), the IC50 [23] was 4.54 µM (active) and the EC50 [24] was 24.4 µM (active). For the same molecule, the IC50 [25] was > 20 µM (inactive).

For Cc1ccccc1C(=O)N1CCN(c2ccc(NC(=O)c3ccc4c(c3)OCCO4)cc2)CC1, the EC50 [13] was 4.61 µM (active), the IC50 [15] was 4.55 µM (active) and the IC50 [17] was 9.82 µM (active). For the same molecule, the EC50 [26] was 10.2 µM (active), the IC50 [18] was 3.6 µM (active) and the IC50 [27] was > 20 µM (inactive). For the same molecule, the IC50 [22] was 4.73 µM (active), the IC50 [23] was 3.69 µM (active) and the AC50 [9] was 2.17 µM (active). The AC50 [10] was 4.24 µM (active) and the IC50 [25] was > 20 µM (inactive).

For O=C(CNCCc1ccc(Cl)cc1Cl)NCc1ccco1, the IC50 [5] was 18.7 µM (active) and the IC50 [6] was 12.3 µM (active).
